This passage reports IC50 results from ChEMBL document CHEMBL4219202, “C21 steroidal glycosides with cytotoxic activities from Cynanchum otophyllum” (Bioorg Med Chem Lett, 2018).

What all share (format): functional, cell-based
In one assay the test system is SW480. Nature of the assay: Cytotoxicity against human SW480 cells assessed as reduction in cell viability after 48 hrs by MTS assay. Particulars: SW480, 48 h. For orientation: Tetrazolium dyes change colour on reduction, which living cells bring about.
A further assay relates to HL-60. Nature of the assay: Cytotoxicity against human HL60 cells assessed as reduction in cell viability after 48 hrs by MTS assay. Particulars: HL-60, 48 h.
The subject of another assay is MCF7. Kind of assay: Cytotoxicity against human MCF7 cells assessed as reduction in cell viability after 48 hrs by MTS assay. Particulars: MCF7, 48 h.
For a further assay, the system named is A549. Nature of the assay: Cytotoxicity against human A549 cells assessed as reduction in cell viability after 48 hrs by MTS assay. Particulars: A549, 48 h.
For another assay, the system named is SMMC-7721. Nature of the assay: Cytotoxicity against human SMMC7721 cells assessed as reduction in cell viability after 48 hrs by MTS assay. Particulars: SMMC-7721, 48 h.

Some results are limits rather than exact numbers.

Take `CO[C@H]1C[C@H](O[C@H]2CC[C@@]3(C)C(=CC[C@]4(O)[C@@H]3C[C@@H](OC(=O)c3ccc(O)cc3)[C@@]3(C)[C@]4(O)CC[C@@]3(O)C(C)=O)C2)O[C@H](C)[C@H]1O[C@H]1C[C@H](OC)[C@H](O[C@H]2C[C@@H](OC)[C@H](O)[C@@H](C)O2)[C@@H](C)O1`: the IC50 is greater than 40 µM in the assay on SW480; 29.1 µM with HL-60; greater than 40 µM with MCF7; greater than 40 µM with A549; greater than 40 µM with SMMC-7721.
For the molecule `CO[C@H]1C[C@H](O[C@H]2CC[C@@]3(C)C(=CC[C@]4(O)[C@@H]3C[C@@H](OC(=O)/C=C/C(C)C)[C@@]3(C)[C@]4(O)CC[C@@]3(O)C(C)=O)C2)O[C@H](C)[C@H]1O[C@H]1C[C@H](OC)[C@H](O[C@H]2C[C@@H](OC)[C@H](O)[C@@H](C)O2)[C@@H](C)O1`, the half-inhibitory concentration (IC50) in the assay on SW480 was greater than 40 µM; in the assay on HL-60 it was 25.8 µM; in the assay on MCF7 it was greater than 40 µM; in the assay with A549, greater than 40 µM; in the assay with SMMC-7721, greater than 40 µM.
Turning to `CO[C@H]1C[C@H](O[C@H]2CC[C@@]3(C)C(=CC[C@]4(O)[C@@H]3C[C@@H](OC(=O)/C=C(\C)C(C)C)[C@@]3(C)[C@]4(O)CC[C@@]3(O)C(C)=O)C2)O[C@H](C)[C@H]1O[C@H]1C[C@H](OC)[C@H](O[C@H]2C[C@@H](OC)[C@H](O)[C@@H](C)O2)[C@@H](C)O1`, the half-maximal inhibitory concentration (IC50) was 30.3 µM in the assay on SW480; 11.4 µM in the assay on HL-60; 16.1 µM in the assay with MCF7; 27.7 µM in the assay with A549; 27.9 µM with SMMC-7721.
With `CO[C@H]1C[C@H](O[C@H]2[C@@H](O)C[C@H](O[C@H]3CC[C@@]4(C)C(=CC[C@]5(O)[C@@H]4C[C@@H](OC(=O)/C=C(\C)C(C)C)[C@@]4(C)[C@]5(O)CC[C@@]4(O)C(C)=O)C3)O[C@@H]2C)O[C@H](C)[C@H]1O`, the concentration for half-maximal inhibition (IC50) in the assay on SW480 is greater than 40 µM; in the assay with HL-60, 15.7 µM; with MCF7, greater than 40 µM; in the assay on A549, greater than 40 µM; in the assay with SMMC-7721 it was greater than 40 µM.
For the molecule `CO[C@H]1C[C@H](O[C@H]2[C@@H](OC)C[C@H](O[C@H]3CC[C@@]4(C)C(=CC[C@]5(O)[C@@H]4C[C@@H](OC(=O)/C=C/c4ccccc4)[C@@]4(C)[C@]5(O)CC[C@@]4(O)C(C)=O)C3)O[C@@H]2C)O[C@H](C)[C@H]1O`, the IC50 in the assay on SW480 was 36.7 µM; with HL-60, 20.6 µM; in the assay with MCF7, 25.6 µM; in the assay on A549, 35.5 µM; with SMMC-7721 it was 33.1 µM.
The corresponding values for `C/C=C(\C)C(=O)O[C@@H]1C[C@@H]2[C@@]3(C)CC[C@H](O[C@H]4C[C@H](OC)[C@H](O[C@H]5C[C@H](OC)[C@H](O[C@H]6C[C@@H](OC)[C@H](O)[C@@H](C)O6)[C@@H](C)O5)[C@@H](C)O4)CC3=CC[C@@]2(O)[C@@]2(O)CC[C@@](O)(C(C)=O)[C@@]12C` are greater than 40 µM, 15.6 µM, greater than 40 µM, greater than 40 µM and greater than 40 µM.
For the molecule `COc1cc(C(=O)O[C@@H]2C[C@@H]3[C@@]4(C)CC[C@H](O[C@H]5C[C@H](O)[C@H](O[C@H]6C[C@H](OC)[C@H](O[C@H]7C[C@@H](OC)[C@H](O)[C@@H](C)O7)[C@@H](C)O6)[C@@H](C)O5)CC4=CC[C@@]3(O)[C@@]3(O)CC[C@@](O)(C(C)=O)[C@@]23C)ccc1O`, the half-inhibitory concentration (IC50) was greater than 40 µM in the assay with SW480; 37.9 µM in the assay on HL-60; greater than 40 µM in the assay on MCF7; greater than 40 µM in the assay on A549; greater than 40 µM in the assay with SMMC-7721.
Consider `CO[C@H]1C[C@H](O[C@H]2CC[C@@]3(C)C(=CC[C@]4(O)[C@@H]3C[C@@H](OC(=O)/C=C(\C)C(C)C)[C@@]3(C)[C@]4(O)CC[C@@]3(O)C(C)=O)C2)O[C@H](C)[C@H]1O[C@H]1C[C@@H](OC)[C@H](O)[C@@H](C)O1`, for which the IC50 with SW480 was greater than 40 µM; in the assay on HL-60, 15.4 µM; with MCF7, greater than 40 µM; in the assay with A549, greater than 40 µM; in the assay with SMMC-7721, greater than 40 µM.
As for `CO[C@H]1C[C@H](O[C@H]2CC[C@@]3(C)C(=CC[C@]4(O)[C@@H]3C[C@@H](OC(=O)c3ccccc3)[C@@]3(C)[C@]4(O)CC[C@@]3(O)C(C)=O)C2)O[C@H](C)[C@H]1O[C@H]1C[C@@H](OC)[C@H](O)[C@@H](C)O1`, the IC50 in the assay on SW480 is greater than 40 µM; in the assay with HL-60 it was 15.6 µM; in the assay on MCF7, greater than 40 µM; in the assay on A549 it was greater than 40 µM; with SMMC-7721, greater than 40 µM.
As to `CO[C@H]1C[C@H](O[C@H]2CC[C@@]3(C)C(=CC[C@]4(O)[C@@H]3C[C@@H](OC(=O)/C=C(\C)C(C)C)[C@@]3(C)[C@]4(O)CC[C@@]3(O)C(C)=O)C2)O[C@H](C)[C@H]1O`, the concentration for half-maximal inhibition (IC50) in the assay on SW480 is greater than 40 µM; in the assay on HL-60, 25.6 µM; in the assay with MCF7, greater than 40 µM; in the assay on A549 it was greater than 40 µM; in the assay on SMMC-7721, greater than 40 µM.
As to `CO[C@H]1C[C@H](O[C@H]2CC[C@@]3(C)C(=CC[C@]4(O)[C@@H]3C[C@@H](OC(=O)/C=C(\C)C(C)C)[C@@]3(C)[C@]4(O)CC[C@@]3(O)C(C)=O)C2)O[C@H](C)[C@H]1O[C@H]1C[C@H](O)[C@H](O[C@H]2C[C@@H](OC)[C@H](O)[C@@H](C)O2)[C@@H](C)O1`, the IC50 in the assay on SW480 was 24.8 µM; in the assay with HL-60, 12.9 µM; in the assay with MCF7, 17.2 µM; with A549 it was 30.4 µM; with SMMC-7721, 27.4 µM.
The corresponding values for `CO[C@H]1C[C@H](O[C@H]2[C@@H](OC)C[C@H](O[C@H]3CC[C@]4(C)[C@H]5C[C@@H](OC(=O)/C=C(\C)C(C)C)[C@@]6(C)[C@](O)(CC[C@@]6(O)C(C)=O)[C@]5(O)C[C@@H]5O[C@@]54C3)O[C@@H]2C)O[C@H](C)[C@H]1O` are greater than 40 µM, 15.8 µM, greater than 40 µM, greater than 40 µM and greater than 40 µM.
For the molecule `CO[C@H]1C[C@H](O[C@H]2CC[C@@]3(C)C(=CC[C@]4(O)[C@@H]3C[C@@H](OC(=O)/C=C(\C)C(C)C)[C@@]3(C)[C@]4(O)CC[C@@]3(O)C(C)=O)C2)O[C@H](C)[C@H]1O[C@H]1C[C@H](OC)[C@H](O[C@H]2C[C@@H](OC)[C@H](O[C@H]3C[C@@H](OC)[C@H](O)[C@@H](C)O3)[C@@H](C)O2)[C@@H](C)O1`, the 50% inhibitory concentration (IC50) is 28.8 µM in the assay with SW480; 12.2 µM in the assay with HL-60; 18 µM in the assay on MCF7; greater than 40 µM with A549; 30.8 µM with SMMC-7721.

By IC50 is commonly meant the concentration needed to halve the response being measured.
